Numbering of substitutions follows the chain as printed.
What was measured:
Assay in all cases: isothermal titration calorimetry
Type in all cases: binding
LYR4 = biological target: T1, LYR4 (Medicago truncatula, UniProt G7K7K0); details: ectodomain
T1 sequence (G7K7K0 24-242): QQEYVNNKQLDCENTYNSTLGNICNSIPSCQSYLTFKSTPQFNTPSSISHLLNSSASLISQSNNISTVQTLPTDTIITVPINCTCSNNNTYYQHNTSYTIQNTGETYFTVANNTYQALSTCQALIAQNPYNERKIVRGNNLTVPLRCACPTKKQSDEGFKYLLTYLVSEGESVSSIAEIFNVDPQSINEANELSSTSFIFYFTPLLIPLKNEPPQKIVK

CHIP13 [1] = biological target: T2, CHIP13 (Lotus japonicus, UniProt D3KU00, Y232A/F233A); details: ectodomain variant
T2 sequence (D3KU00 33-253 Y232A/F233A): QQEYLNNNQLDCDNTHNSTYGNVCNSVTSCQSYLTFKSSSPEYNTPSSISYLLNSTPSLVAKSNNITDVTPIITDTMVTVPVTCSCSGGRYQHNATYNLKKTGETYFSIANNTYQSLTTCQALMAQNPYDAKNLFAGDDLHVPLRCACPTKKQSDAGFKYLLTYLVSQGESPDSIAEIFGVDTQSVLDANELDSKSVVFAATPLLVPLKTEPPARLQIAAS

CHIP13 [2] = biological target: T3, CHIP13 (Lotus japonicus, UniProt D3KU00); details: ectodomain
T3 sequence (D3KU00 33-253): T2 sequence (D3KU00 33-253 Y232A/F233A) with A200Y, A201F

CERK6 = biological target: T4, CERK6 (Lotus japonicus, UniProt D3KTZ6); details: read-out: affinity; ectodomain; crystal structure: CO5 in LysM1 and LysM2
T4 sequence (D3KTZ6 26-223): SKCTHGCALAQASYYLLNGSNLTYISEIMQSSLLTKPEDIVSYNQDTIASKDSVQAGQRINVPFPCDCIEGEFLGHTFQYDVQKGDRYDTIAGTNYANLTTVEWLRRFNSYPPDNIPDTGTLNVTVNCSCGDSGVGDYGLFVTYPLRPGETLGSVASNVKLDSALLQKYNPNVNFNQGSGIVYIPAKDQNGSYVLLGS

MtCERK1 = biological target: T5, MtCERK1 (Medicago truncatula, UniProt G7J6P5); details: read-out: affinity; ectodomain
T5 sequence (G7J6P5 30-232): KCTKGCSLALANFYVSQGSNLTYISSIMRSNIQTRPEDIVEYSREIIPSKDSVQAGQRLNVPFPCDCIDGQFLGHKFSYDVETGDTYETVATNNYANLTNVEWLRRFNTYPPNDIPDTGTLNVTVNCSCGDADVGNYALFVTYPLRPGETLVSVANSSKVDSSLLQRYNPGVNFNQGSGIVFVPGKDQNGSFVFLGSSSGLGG

Kd (CERK6) [µM]	Kd (CHIP13 [2]) [µM]	Kd (MtCERK1) [µM]	Compound	Kd (LYR4) [µM]	Kd (CHIP13 [1]) [µM]	Kd (CHIP13 [2]; crystal structure at 1.35 Å: LysM2, LysM3 and bridge domain site) [µM]
			CC(=O)N[C@H]1[C@H](O[C@H]2[C@H](O)[C@@H](NC(C)=O)[C@H](O[C@H]3[C@H](O)[C@@H](NC(C)=O)[C@H](O[C@H]4[C@H](O)[C@@H](NC(C)=O)C(O)O[C@@H]4CO)O[C@@H]3CO)O[C@@H]2CO)O[C@H](CO)[C@@H](O[C@@H]2O[C@H](CO)[C@@H](O[C@@H]3O[C@H](CO)[C@@H](O[C@@H]4O[C@H](CO)[C@@H](O[C@@H]5O[C@H](CO)[C@@H](O)[C@H](O)[C@H]5NC(C)=O)[C@H](O)[C@H]4NC(C)=O)[C@H](O)[C@H]3NC(C)=O)[C@H](O)[C@H]2NC(C)=O)[C@@H]1O (stereo partly shown) [CO8, octa-N-acetyl-chitooctaose]	1.92	107 ± 80	0.9
2800	1270	729	CC(=O)N[C@H]1[C@H](O[C@H]2[C@H](O)[C@@H](NC(C)=O)[C@H](O[C@H]3[C@H](O)[C@@H](NC(C)=O)C(O)O[C@@H]3CO)O[C@@H]2CO)O[C@H](CO)[C@@H](O[C@@H]2O[C@H](CO)[C@@H](O[C@@H]3O[C@H](CO)[C@@H](O)[C@H](O)[C@H]3NC(C)=O)[C@H](O)[C@H]2NC(C)=O)[C@@H]1O (stereo partly shown) [CO5, penta-N-acetyl-chitopentaose]	96		

— publication doi:10.1101/2025.07.09.663820v1 (biorxiv, 2025)
